SMILES strings stand for the structures.

This assay addresses MDM2 (Homo sapiens, UniProt Q00987). Nature of the assay: biochemical.

Chain of MDM2 (Q00987 1-118): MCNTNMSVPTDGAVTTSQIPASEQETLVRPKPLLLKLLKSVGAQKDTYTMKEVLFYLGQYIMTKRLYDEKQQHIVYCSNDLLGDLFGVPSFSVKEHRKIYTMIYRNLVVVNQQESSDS

Take `CC(C)(C)C[C@H]1N[C@@H](C(=O)NCC[C@H](O)CO)[C@H](c2ccc(F)c(Cl)c2)[C@@]12C(=O)Nc1cc(Cl)c(F)cc12` [MI-319]: the affinity, expressed as Ki, was 9.6 ± 3.9 nM.
